Measurements published in PubChem BioAssay (NCI).
Values joined by “and” are separate entries in the source; they are usually repeats but may differ in a detail not shown here. Identical values can stand only once.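 Cultured in 96-well plates, cells were exposed to test compound for 48 hours across five concentrations. At the GI50, growth is halved. TGI marks complete inhibition of growth.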

How the values were obtained:
Test in all cases: growth of human tumour cells (NCI), 48 h
[1] = test system: ACHN renal
[2] = test system: HL-60(TB) leukemia
[3] = test system: KM12 colon
[4] = test system: M14 melanoma
[5] = test system: MCF7 breast
[6] = test system: NCI-H23 lung
[7] = test system: NCI/ADR-RES ovarian
[8] = test system: UACC-257 melanoma
[9] = test system: NCI-H226 lung
[10] = test system: SF-539 CNS

Compound	TGI [1]	TGI [2]	TGI [3]	TGI [4]	TGI [5]	TGI [6]	TGI [7]	TGI [8]	TGI [9]	TGI [10]	GI50 [1]	GI50 [3]	GI50 [4]	GI50 [5]	GI50 [9]	GI50 [6]	GI50 [7]	GI50 [10]	GI50 [8]	GI50 [2]
O=C(CCl)N1CCN(c2ccccn2)CC1	61.2 µM	49.6 µM	94 µM	35.5 µM	53 µM	39.9 µM	57.7 µM	65.5 µM												
O=C1CC[C@@H](S(=O)(=O)c2ccccc2)[C@H](/C=C/c2ccccc2)O1	> 100 µM	> 100 µM	> 100 µM	> 100 µM		> 100 µM		> 100 µM	> 100 µM	> 100 µM										
CCN1C[C@@H](C)n2c(c(O)c3c(=O)n(Cc4ccc(F)c(Cl)c4)nc(C(=O)NC)c32)C1=O	8.87 µM		7.71 µM	39.5 µM	65.7 µM	8.62 µM	7.79 µM	6.77 µM	> 100 µM	5.37 µM	2.85 µM	2730 nM	3.64 µM	3.26 µM	3310 nM	2.7 µM	1.62 µM	2.32 µM	2.32 µM	
C=C1C2CCCC1C1(S(C)(=O)=O)CCCCC21O (configuration not stated)	> 100 µM		> 100 µM	> 100 µM		> 100 µM		> 100 µM	> 100 µM	> 100 µM										
CN(C)CC1CCCC/C1=N\OC(=O)c1ccccc1 (configuration not stated)	> 100 µM	> 100 µM	> 100 µM	> 100 µM		> 100 µM		> 100 µM	> 100 µM	> 100 µM										
CC[C@@]1(O)C(=O)OCc2c1cc1n(c2=O)Cc2cc3cc(O)ccc3nc2-1	0.457 µM	0.135 µM	2.34 µM and 5.38 µM	1.39 µM		0.109 µM and 0.0424 µM	0.225 µM and 0.109 µM	0.481 µM and 2.1 µM	0.0907 µM and 0.113 µM	0.0495 µM and 0.0166 µM		127 nM and 142 nM			16.2 nM and 16.5 nM				0.047 µM and 0.156 µM	0.0187 µM
C=CCc1cc(OC)c(O)c(C(=O)/C=C/c2ccc(OC)c(OC)c2)c1	45.9 µM	38 µM	44.9 µM	31.7 µM		30.5 µM		37.4 µM		48.1 µM										
O=C(CC(O)(C(F)(F)F)C(F)(F)F)c1cccs1	> 10 µM	> 10 µM	> 10 µM	> 10 µM	> 10 µM	> 10 µM	> 10 µM	> 10 µM		> 10 µM										
O=C1NC(c2cccc3ccccc23)Nc2ccc(Cl)cc21 (configuration not stated)	10.7 µM	0.000441 µM	0.803 µM		> 100 µM	14.9 µM	0.0115 µM							0.0129 µM		0.011 µM				
Nc1nc(N)c2c(Cl)c(CNc3ccc(Cl)c(Cl)c3)ccc2n1	14 µM	2.75 µM	3.19 µM	3.87 µM		5.43 µM	18.7 µM	19.4 µM	33.7 µM	1.21 µM										
CC(=O)[CH-]C(=O)c1ccccc1.CC(=O)[CH-]C(=O)c1ccccc1.CC(=O)[CH-]C(=O)c1ccccc1.[Cl-].[Hf+4]	> 100 µM	> 100 µM	> 100 µM	60.8 µM		> 100 µM		75.3 µM			31.3 µM	36100 nM	18.6 µM			39.1 µM			19.9 µM	25.8 µM
NC(N)=NCCCC(Nc1c2ccccc2nc2ccccc12)C(=O)O (configuration not stated)	> 100 µM	> 100 µM	> 100 µM	> 100 µM		> 100 µM		> 100 µM	> 100 µM	> 100 µM										
[pH]1p2[pH]p3p1p3[pH]2.c1cc[c]([Ge]([c]2ccccc2)[c]2ccccc2)cc1.c1cc[c]([Ge]([c]2ccccc2)[c]2ccccc2)cc1.c1cc[c]([Ge]([c]2ccccc2)[c]2ccccc2)cc1	36.2 µM	57.3 µM	33.7 µM	27.3 µM		31.2 µM		31.7 µM	37.2 µM	31.8 µM	16.9 µM	15100 nM	13.6 µM		20500 nM	15.3 µM		13.9 µM	15.2 µM	15.5 µM
O=C(Nc1ccc(Nc2ccc(NC(=O)c3ccccc3)c3c2C(=O)c2ccccc2C3=O)c2c1C(=O)c1ccccc1C2=O)c1ccccc1	> 100 µM	> 100 µM	> 100 µM	> 100 µM				> 100 µM	> 100 µM	> 100 µM										
CC(=O)CCC[C@@H](C)[C@@H]1O[C@H]([C@@]2(C)CCC(=O)O2)CC2[C@H]1OC(=O)C21CC1 (some centres not stated)	> 100 µM	> 100 µM	> 100 µM		> 100 µM	59.6 µM	> 100 µM	> 100 µM		> 100 µM	> 100 µM	> 100000 nM		22.3 µM		15.3 µM	71.3 µM	60.6 µM	50.7 µM	> 100 µM
COc1ccc(C(=O)C(c2ccc(OC)cc2)C2(O)C(=O)Nc3c(Cl)cc(Cl)cc32)cc1 (configuration not stated)	61.2 µM	19.7 µM	36.9 µM	33.6 µM		38.5 µM		31.7 µM	36.5 µM											
COc1c(CC(C)=O)c2ccccc2n1C(C)=O	> 100 µM	> 100 µM	> 100 µM	> 100 µM		> 100 µM		> 100 µM		> 100 µM										
O=C(CCl)N1CCN(c2ccccc2)CC1	41.1 µM	41.2 µM	37.2 µM	35.2 µM	42.4 µM	35.6 µM	> 100 µM	43.6 µM												
CS(=O)(=O)ON1C(=O)c2ccc(N)cc2C1=O	> 100 µM	46.5 µM	> 100 µM	> 100 µM		> 100 µM		> 31.6 µM	> 100 µM	> 100 µM										
Cc1[nH]c2ccccc2c1/C=C/c1c(C)[nH]c2ccccc12	> 100 µM	> 100 µM	> 100 µM	> 100 µM		> 100 µM		> 100 µM	> 100 µM	> 100 µM										
